Values joined by “and” are separate entries in the source; they are usually repeats but may differ in a detail not shown here. Equal entries are not always repeated.

The subject of test [1] is JIMT1 breast cancer cells. In words: MTS cell viability assay, JIMT1. Type of test: cell-based. Particulars: Homo sapiens, JIMT-1, 72 h treatment. Here is the method:
The cell viability effects of compounds 5a–5f were assessed in LY2, JIMT1, and MDA‐MB‐231 breast cancer cell lines using the 3‐(4,5‐dimethylthiazol‐2‐yl)‐5‐(3‐carboxymethoxyphenyl)‐2‐(4‐sulfophenyl)‐2H‐tetrazolium (MTS) assay. The MTS assay measures metabolic viability and serves as a first‐pass screen.
JIMT‐1 (DSMZ ACC 589) and MDA‐MB‐231 (ATCC HTB‐26) breast cancer cell lines were maintained in Dulbecco's Modified Eagle Medium (DMEM) High Glucose with L‐glutamine (D5796, Sigma) supplemented with 10% fetal calf serum. MCF7‐derivative LY2 breast cancer cells were previously described (REF: PMID: 33420368). LY2 cells were cultured in phenol red‐free MEM (PRF‐MEM; 51 200‐046, Gibco) supplemented with 10% charcoal dextran‐stripped fetal calf serum (CDS‐FCS; F6765, Merck), 2 mmol/L L‐glutamine (G7513, Merck), and 10^−8 mol/L 4‐hydroxytamoxifen (4‐OHT; H7904, Merck). All cell lines were maintained at 37°C in a humidified incubator with 5% CO2 and regularly authenticated and tested for mycoplasma.
Cell viability was evaluated in response to increasing concentrations of 5a‐5f (0.3, 1, 3, 10, and 30 μM) or vehicle control (0.1% DMSO). LY2, JIMT1, and MDA‐MB‐231 cells were seeded at a density of 2,500 cells per well in 96‐well plates with a total volume of 100 μL per well. Prior to treatment, cells were serum‐deprived for 24 h. Following serum depletion, cells were treated in complete growth medium for 72 h. Cell viability was assessed using the MTS assay (G1111, Promega) according to the manufacturer's instructions. Absorbance was measured at 495 nm using a BioTek Synergy HTX Multi‐Mode Microplate Reader (Agilent). Results were normalized to the vehicle control (DMSO), and the half‐maximal inhibitory concentration (IC50) of the inhibitors was determined by nonlinear regression (curve fit) using a four‐parameter variable slope model.
On the technique in general: Tetrazolium assays rely on reduction of a dye to a coloured formazan, in cell work by metabolically active cells.

The target of test [2] is HDAC6 (Homo sapiens, UniProt Q9UBN7). In words: HDAC6 inhibition, 10-dose IC50 (Reaction Biology Corporation). To be noted: 10‐dose IC50 mode, threefold serial dilutions starting at 1 μM. Type of test: biochemical.
HDAC6, sequence (Q9UBN7 whole entry, canonical isoform): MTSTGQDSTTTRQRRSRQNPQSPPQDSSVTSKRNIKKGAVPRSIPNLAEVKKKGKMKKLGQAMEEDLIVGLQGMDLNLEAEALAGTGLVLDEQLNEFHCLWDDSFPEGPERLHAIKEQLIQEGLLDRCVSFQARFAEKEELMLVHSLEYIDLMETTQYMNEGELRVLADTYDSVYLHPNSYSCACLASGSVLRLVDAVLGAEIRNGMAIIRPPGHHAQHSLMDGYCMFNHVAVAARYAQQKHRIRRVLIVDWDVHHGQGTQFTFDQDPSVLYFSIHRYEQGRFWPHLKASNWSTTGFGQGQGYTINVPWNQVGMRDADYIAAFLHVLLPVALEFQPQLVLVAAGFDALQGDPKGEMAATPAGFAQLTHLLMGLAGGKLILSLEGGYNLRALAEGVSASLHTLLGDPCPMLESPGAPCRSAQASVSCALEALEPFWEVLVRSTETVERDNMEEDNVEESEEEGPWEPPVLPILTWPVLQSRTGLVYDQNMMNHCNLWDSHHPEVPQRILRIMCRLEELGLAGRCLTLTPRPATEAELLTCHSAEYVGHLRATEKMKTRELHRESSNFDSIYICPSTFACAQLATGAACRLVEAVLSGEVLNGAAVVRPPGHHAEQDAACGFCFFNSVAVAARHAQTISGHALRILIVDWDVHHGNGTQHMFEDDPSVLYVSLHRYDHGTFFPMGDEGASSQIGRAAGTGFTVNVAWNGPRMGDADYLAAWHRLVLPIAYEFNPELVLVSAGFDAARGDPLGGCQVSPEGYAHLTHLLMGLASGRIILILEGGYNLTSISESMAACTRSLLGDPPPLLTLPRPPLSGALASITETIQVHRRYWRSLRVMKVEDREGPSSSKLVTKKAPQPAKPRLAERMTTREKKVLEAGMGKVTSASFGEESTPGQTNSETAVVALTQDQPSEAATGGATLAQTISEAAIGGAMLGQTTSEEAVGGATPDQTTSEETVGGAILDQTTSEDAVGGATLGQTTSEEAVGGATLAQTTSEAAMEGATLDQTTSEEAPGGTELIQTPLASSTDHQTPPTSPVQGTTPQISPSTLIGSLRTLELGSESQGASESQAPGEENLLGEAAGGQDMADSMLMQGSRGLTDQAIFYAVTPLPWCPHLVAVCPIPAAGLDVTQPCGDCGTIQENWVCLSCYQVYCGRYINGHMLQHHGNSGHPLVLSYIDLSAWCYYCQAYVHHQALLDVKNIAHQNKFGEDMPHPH
The target of test [3] is HDAC4 (Homo sapiens, UniProt P56524). As to the kind of experiment: Selectivity profile, single dose 0.5 µM, HDAC4. Particulars: remaining enzyme activity; single‐dose duplicate mode at 0.5 μM; read-out: Enzyme % activity (relative to DMSO controls) at 0.5 µM, HDAC4. Type of test: biochemical. Here is the method: The inhibitory profiles of 5b and 5f were evaluated against selected HDAC isoforms (HDAC1, HDAC3, HDAC4, HDAC8, and HDAC10) and PI3K isoforms (PI3Kδ, PI3Kγ, and PI3Kβ) at a fixed concentration of 0.5 µM (Table 3). […] While we explored the phenyl ring in the linker region to achieve selectivity for the HDAC6 isoform, we still observed HDAC class I inhibition. […] It is important to highlight that PI3Kδ is mainly expressed in hematopoietic system and plays roles in leukocyte signaling, T‐cell activation, and immune cell trafficking. FDA‐approved drug idelalisib is a selective PI3Kδ inhibitor in B‐cell malignancies; however, this drug is also related to disruption of the immune system, which can lead to immune manifestations, such as infections. In addition, while isoform‐selective PI3K inhibitors are well tolerated, pan‐inhibition of PI3K is less expected that compensatory mechanisms by the action of other PI3Ks can take place. Thus, a more balanced profile of PI3K inhibition can lead to an overall lack of toxicity of PI3K inhibitors.
HDAC4, sequence (P56524 whole entry, canonical isoform): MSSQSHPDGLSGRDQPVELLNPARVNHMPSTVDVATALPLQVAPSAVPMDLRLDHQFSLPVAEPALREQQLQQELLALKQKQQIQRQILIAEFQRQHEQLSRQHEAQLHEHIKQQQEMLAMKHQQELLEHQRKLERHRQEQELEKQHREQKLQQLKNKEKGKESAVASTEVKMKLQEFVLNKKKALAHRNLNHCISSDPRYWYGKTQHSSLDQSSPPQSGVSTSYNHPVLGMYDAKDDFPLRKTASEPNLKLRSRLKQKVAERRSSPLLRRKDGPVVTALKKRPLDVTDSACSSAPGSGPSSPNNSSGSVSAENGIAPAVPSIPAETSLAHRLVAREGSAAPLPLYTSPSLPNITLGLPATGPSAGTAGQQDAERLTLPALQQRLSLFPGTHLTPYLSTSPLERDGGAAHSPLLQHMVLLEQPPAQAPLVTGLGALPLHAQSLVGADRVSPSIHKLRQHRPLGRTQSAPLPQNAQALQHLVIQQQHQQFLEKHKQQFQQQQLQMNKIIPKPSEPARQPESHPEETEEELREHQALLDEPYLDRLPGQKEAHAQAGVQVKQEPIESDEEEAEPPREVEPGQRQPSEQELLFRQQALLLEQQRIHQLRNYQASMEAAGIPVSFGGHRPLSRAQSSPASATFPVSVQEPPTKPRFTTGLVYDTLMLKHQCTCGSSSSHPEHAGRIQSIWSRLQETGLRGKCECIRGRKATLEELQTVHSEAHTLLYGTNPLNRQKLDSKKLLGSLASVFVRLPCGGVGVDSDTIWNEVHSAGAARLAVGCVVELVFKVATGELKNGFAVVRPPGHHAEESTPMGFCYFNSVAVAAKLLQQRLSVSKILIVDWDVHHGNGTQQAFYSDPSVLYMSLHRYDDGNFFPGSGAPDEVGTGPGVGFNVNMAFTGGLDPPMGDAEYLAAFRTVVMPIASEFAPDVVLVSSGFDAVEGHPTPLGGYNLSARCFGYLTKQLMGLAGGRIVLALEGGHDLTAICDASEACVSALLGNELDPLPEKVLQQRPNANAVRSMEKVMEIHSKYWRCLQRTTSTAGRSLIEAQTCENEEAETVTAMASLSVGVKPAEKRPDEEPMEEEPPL

Turning to `COc1ccc(-c2nc(NCc3ccc(C(=O)NO)cc3)nc(N3CCOCC3)n2)cn1` [Compound 5f, N‐Hydroxy‐4‐(((4‐(6‐Methoxypyridin‐3‐yl)‐6‐Morpholino‐1,3,5‐Triazin‐2‐yl)Amino)Methyl)Benzamide], the IC50 (in general, the concentration that gives 50% inhibition) is 3.5 ± 0.95 µM in test [1]; 6.02 nM and 6 nM in test [2]. Besides, in test [3], the remaining activity at 0.5 µM worked out at 98.4%.
On to `O=C(NO)c1ccc(CNc2nc(-c3cccc(O)c3)nc(N3CCOCC3)n2)cc1` [Compound 5b, N‐Hydroxy‐4‐(((4‐(3‐Hydroxyphenyl)‐6‐Morpholino‐1,3,5‐Triazin‐2‐yl)Amino)Methyl)Benzamide], for which the IC50 was 5.72 ± 0.76 µM in test [1]; 2.33 nM and 2.3 nM in test [2]. For the same molecule, the remaining activity at 0.5 µM in test [3] is 89%.
